Read-outs that look alike come from different tables or passages of the source.
How the values were obtained:
Factor XIa = Factor XIa (Homo sapiens (Human), UniProt P03951); assay: Factor XIa inhibition assay (FLINT) utilizing a fluorophore-quencher pair peptide substrate; format: biochemical; conditions: 30 min preincubation, kinetic reads over 30 min, read-out: FXIa Kin Inh IC50
In short: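 FXIa ([…]) preincubated 30 min with compound (11-point 3-fold dilution, top 100 nM, 2% DMSO), then 15 μM quenched FXI Arg146-based peptide added; Tris pH 7.5, CaCl2, BSA, CHAPS. Fluorescence 485/520 nm read kinetically every 5 min over 30 min at RT; IC50 by 4-parameter fit.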

human plasma kallikrein = human plasma kallikrein (Homo sapiens (Human), UniProt P03952); assay: Kallikrein inhibition assay (FLINT) utilizing a quenched AMC peptide substrate; format: biochemical; conditions: 30 min preincubation, kinetic reads over 30 min, Z-Gly-Pro-Arg-AMC substrate 50 μM; read-out: Kallikrein Kin Inh IC50
Sequence of human plasma kallikrein (P03952 391-638): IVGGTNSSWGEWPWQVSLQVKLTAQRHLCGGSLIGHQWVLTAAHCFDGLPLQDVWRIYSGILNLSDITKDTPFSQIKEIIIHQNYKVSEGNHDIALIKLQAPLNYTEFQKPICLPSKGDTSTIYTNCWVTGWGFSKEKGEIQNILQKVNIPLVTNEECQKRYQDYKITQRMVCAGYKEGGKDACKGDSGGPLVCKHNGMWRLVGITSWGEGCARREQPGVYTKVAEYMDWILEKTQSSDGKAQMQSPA
Sequence of human plasma kallikrein (P03952 20-390 partner): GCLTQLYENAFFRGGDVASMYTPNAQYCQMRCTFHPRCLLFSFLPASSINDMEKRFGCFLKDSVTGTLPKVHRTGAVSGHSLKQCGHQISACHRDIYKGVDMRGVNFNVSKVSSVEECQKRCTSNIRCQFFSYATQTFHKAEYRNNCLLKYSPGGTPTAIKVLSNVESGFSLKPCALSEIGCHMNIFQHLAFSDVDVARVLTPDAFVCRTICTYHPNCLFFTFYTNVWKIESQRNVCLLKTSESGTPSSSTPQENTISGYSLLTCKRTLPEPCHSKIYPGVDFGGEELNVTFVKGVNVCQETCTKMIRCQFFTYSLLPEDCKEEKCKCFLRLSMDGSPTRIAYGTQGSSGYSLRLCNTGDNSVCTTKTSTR
In short: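 Enzyme (2 nM final) pre-incubated 30 min at room temperature with compound (11-point, 3-fold, top 1 μM, 2% DMSO), then 50 μM Z-Gly-Pro-Arg-AMC added in Tris pH 7.5 buffer. Kinetic fluorescence 340/440 nm every 5 min over 30 min; IC50 from 4-parameter logistic fit.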

[1] = 5Fam-KLTRAETV-K5Tamra substrate 15 μM
[2] = 5Fam-[…]-K5Tamra substrate 15 μM

Sequence of Factor XIa (P03951 388-625): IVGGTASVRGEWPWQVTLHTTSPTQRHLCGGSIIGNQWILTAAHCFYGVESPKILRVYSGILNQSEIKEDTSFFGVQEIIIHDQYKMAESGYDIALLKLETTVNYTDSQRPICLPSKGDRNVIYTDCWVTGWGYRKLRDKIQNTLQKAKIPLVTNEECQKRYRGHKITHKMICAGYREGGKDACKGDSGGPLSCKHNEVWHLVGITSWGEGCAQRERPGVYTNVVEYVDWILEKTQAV
Sequence of Factor XIa (P03951 19-387 partner): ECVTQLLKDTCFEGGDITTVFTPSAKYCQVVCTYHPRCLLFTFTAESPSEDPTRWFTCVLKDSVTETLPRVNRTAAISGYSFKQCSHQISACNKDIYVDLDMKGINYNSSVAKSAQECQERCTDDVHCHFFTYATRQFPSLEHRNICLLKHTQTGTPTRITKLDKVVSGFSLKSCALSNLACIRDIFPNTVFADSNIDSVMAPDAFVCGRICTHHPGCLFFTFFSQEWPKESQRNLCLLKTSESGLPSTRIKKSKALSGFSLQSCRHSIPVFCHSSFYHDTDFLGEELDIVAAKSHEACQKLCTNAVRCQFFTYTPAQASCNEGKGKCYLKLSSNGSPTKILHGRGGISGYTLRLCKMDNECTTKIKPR

IC50 (Factor XIa; [1]) | IC50 (human plasma kallikrein) | IC50 (Factor XIa; [2]) | Compound
0.8 nM | 1.5 nM | – | CC1=CCc2c(-c3cnc(C4CCC5CC(c6c(-n7cnnn7)ccc(Cl)c6F)=CC(=O)N54)[nH]3)ccnc21 (centres unmarked) [Example 374, 7-(3-chloro-2-fluoro-6-(1H-tetrazol-1-yl)phenyl)-3-(5-(7-methyl-5H-cyclopenta[b]pyridin-4-yl)-1H-imidazol-2-yl)-2,3,8,8a-tetrahydroindolizin-5(1H)-one]
39.4 nM | 197 nM | – | NC(=O)c1ccc(-c2cnc([C@@H]3CC[C@H]4CC(c5c(-n6cc(C(F)(F)F)nn6)ccc(Cl)c5F)=CC(=O)N43)[nH]2)cn1 (single isomer, unassigned) [Example 213]
14.5 nM | 115 nM | – | O=C1C[C@H](c2c(-n3cnnn3)ccc(Cl)c2F)C[C@H]2CC[C@@H](c3ncc(-c4ccnc(CO)c4F)[nH]3)N12 [Example 378, (3S,7R,8aR)-7-(3-chloro-2-fluoro-6-(1H-tetrazol-1-yl)phenyl)-3-(5-(3-fluoro-2-(hydroxymethyl)pyridin-4-yl)-1H-imidazol-2-yl)hexahydroindolizin-5(1H)-one]
1.4 nM | 1.7 nM | – | NC(=O)c1scc(-c2c[nH]c([C@@H]3CC[C@@H]4CC(c5c(-n6cnnn6)ccc(Cl)c5F)=CC(=O)N43)n2)c1F [Example 214, 4-(2-((3S,8aR)-7-(3-Chloro-2-fluoro-6-(1H-tetrazol-1-yl)phenyl)-5-oxo-1,2,3,5,8,8a-hexahydroindolizin-3-yl)-1H-imidazol-4-yl)-3-fluorothiophene-2-carboxamide]
2.6 nM | 14.5 nM | – | C[C@@H]1C[C@@H](c2ncc(-c3ccc(N)nc3F)[nH]2)N2C(=O)C=C(c3c(-n4cnnn4)ccc(Cl)c3F)C[C@H]12 (single isomer, unassigned) [Example 345, (1*R,3S,8a*R)-3-(5-(6-Amino-2-fluoropyridin-3-yl)-1H-imidazol-2-yl)-7-(3-chloro-2-fluoro-6-(1H-tetrazol-1-yl)phenyl)-1-methyl-2,3,8,8a-tetrahydroindolizin-5(1H)-one]
54.9 nM | 342 nM | – | NC(=O)c1ccc(-c2cnc([C@@H]3CC[C@@H]4CC(c5c(-n6cnnn6)ccc(Cl)c5F)=CC(=O)N43)[nH]2)c(Cl)n1 [Example 229, 6-Chloro-5-(2-((3S,8aR)-7-(3-chloro-2-fluoro-6-(1H-tetrazol-1-yl)phenyl)-5-oxo-1,2,3,5,8,8a-hexahydroindolizin-3-yl)-1H-imidazol-5-yl)picolinamide]
0.8 nM | 4.2 nM | – | Nc1nccc(-c2cnc([C@@H]3CC[C@@H]4CC(c5c(-n6cnnn6)ccc(Cl)c5F)=CC(=O)N43)[nH]2)c1Cl [Example 380, (3S,8aR)-3-(5-(2-amino-3-chloropyridin-4-yl)-1H-imidazol-2-yl)-7-(3-chloro-2-fluoro-6-(1H-tetrazol-1-yl)phenyl)-2,3,8,8a-tetrahydroindolizin-5(1H)-one]
0.1 nM | 2.5 nM | – | O=C1C=C(c2c(-n3cnnn3)ccc(Cl)c2F)C[C@H]2CC[C@@H](c3ncc(-c4ccnc5[nH]ccc45)[nH]3)N12 (single isomer, unassigned) [Example 362, (3S,8aR*)-3-(5-(1H-pyrrolo[2,3-b]pyridin-4-yl)-1H-imidazol-2-yl)-7-(3-chloro-2-fluoro-6-(1H-tetrazol-1-yl)phenyl)-2,3,8,8a-tetrahydroindolizin-5(1H)-one]
4.5 nM | 32.6 nM | – | O=C1C=C(c2c(-n3cnnn3)ccc(Cl)c2F)C[C@H]2CC[C@@H](c3ncc(-c4c[nH]nc4F)[nH]3)N12 [Example 217, (3S,8aR)-7-(3-Chloro-2-fluoro-6-(1H-tetrazol-1-yl)phenyl)-3-(5-(3-fluoro-1H-pyrazol-4-yl)-1H-imidazol-2-yl)-2,3,8,8a-tetrahydroindolizin-5(1H)-one]
0.3 nM | 0.7 nM | – | NC(=O)c1cc(-c2nc([C@@H]3CCC4CC(c5c(-n6cnnn6)ccc(Cl)c5F)=CC(=O)N43)[nH]c2Cl)cs1 (stereo partly drawn) [Example 218, 4-(5-Chloro-2-((3S)-7-(3-chloro-2-fluoro-6-(1H-tetrazol-1-yl)phenyl)-5-oxo-1,2,3,5,8,8a-hexahydroindolizin-3-yl)-1H-imidazol-4-yl)thiophene-2-carboxamide]
0.7 nM | 7.4 nM | – | CNc1ccc(-c2cnc([C@@H]3CCC4CC(c5c(-n6cnnn6)ccc(Cl)c5F)=CC(=O)N43)[nH]2)c(F)n1 (stereo partly drawn) [Example 368, (3S)-7-(3-chloro-2-fluoro-6-(1H-tetrazol-1-yl)phenyl)-3-(5-(2-fluoro-6-(methylamino)pyridin-3-yl)-1H-imidazol-2-yl)-2,3,8,8a-tetrahydroindolizin-5(1H)-one]

Second part, the compound before the results:

Compound | IC50 (Factor XIa; [1]) | IC50 (human plasma kallikrein) | IC50 (Factor XIa; [2])
[2H]C([2H])(O)c1nccc(-c2cnc([C@@H]3CC[C@]4([2H])CC(c5c(-n6cnnn6)ccc(Cl)c5F)=CC(=O)N34)[nH]2)c1F (single isomer, unassigned) [Example 36] | 5.1 nM | 33.7 nM | –
O=C1C=C(c2c(-n3cnnn3)ccc(Cl)c2F)C[C@H]2CC[C@@H](c3ncc(-c4ccnc(N[C@H]5CCOC5)c4F)[nH]3)N12 (single isomer, unassigned) [Example 73, (3S,8aR*)-7-(3-chloro-2-fluoro-6-(1H-tetrazol-1-yl)phenyl)-3-(5-(3-fluoro-2-(((S)-tetrahydrofuran-3-yl)amino)pyridin-4-yl)-1H-imidazol-2-yl)-2,3,8,8a-tetrahydroindolizin-5(1H)-one] | – | 2.7 nM | 0.6 nM
O=C1C=C(c2c(-n3cnnn3)ccc(Cl)c2F)C[C@H]2CC[C@@H](c3nc(-c4ccc5[nH]ncc5c4)c[nH]3)N12 [Example 43, (3S,8aR)-3-(4-(1H-indazol-5-yl)-1H-imidazol-2-yl)-7-(3-chloro-2-fluoro-6-(1H-tetrazol-1-yl)phenyl)-2,3,8,8a-tetrahydroindolizin-5(1H)-one] | 2.1 nM | 4 nM | –
COC(=O)Nc1nccc(-c2[nH]c([C@@H]3CC[C@@H]4CC(c5c(-n6cnnn6)ccc(Cl)c5F)=CC(=O)N43)nc2F)c1F [Example 40, Methyl N-[4-[2-[(3S,8aR)-7-[3-chloro-2-fluoro-6-(tetrazol-1-yl)phenyl]-5-oxo-2,3,8,8a-tetrahydro-1H-indolizin-3-yl]-4-fluoro-1H-imidazol-5-yl]-3-fluoro-2-pyridyl]carbamate] | 0.8 nM | 6.4 nM | –
O=C1C=C(c2c(-n3cnnn3)ccc(Cl)c2F)C[C@H]2CC[C@@H](c3nc(-c4ccnc5[nH]ncc45)c[nH]3)N12 [Example 38, (3S,8aR)-3-(4-(1H-pyrazolo[3,4-b]pyridin-4-yl)-1H-imidazol-2-yl)-7-(3-chloro-2-fluoro-6-(1H-tetrazol-1-yl)phenyl)-2,3,8,8a-tetrahydroindolizin-5(1H)-one] | 2.1 nM | 2.6 nM | –
N#CC1CN(c2nccc(-c3cnc([C@H]4CC[C@@H]5CC(c6c(-n7cnnn7)ccc(Cl)c6F)=CC(=O)N54)[nH]3)c2F)C1 (single isomer, unassigned) [Example 102, 1-(4-(24(3R*,8aR)-7-(3-chloro-2-fluoro-6-(1H-tetrazol-1-yl)phenyl)-5-oxo-1,2,3,5,8,8a-hexahydroindolizin-3-yl)-1H-imidazol-5-yl)-3-fluoropyridin-2-yl)azetidine-3-carbonitrile] | – | 9.6 nM | 10.3 nM
[2H]c1cc(Cl)cc(C2=CC(=O)N3[C@H](CC[C@@H]3c3ncc(-c4ccc(N)nc4F)[nH]3)C2)c1-n1cnnn1 (single isomer, unassigned) [Example 121] | – | 16.9 nM | 0.7 nM
[2H]c1nc(C2CCC3CC(c4c(-n5cnnn5)ccc(Cl)c4F)=CC(=O)N32)[nH]c1-c1ccc(N)nc1F (stereo in doubt) [Example 154, (3S,8aR)-3-[5-(6-amino-2-fluoro-3-pyridyl)-4-deuterio-1H-imidazol-2-yl]-7-[3-chloro-2-fluoro-6-(tetrazol-1-yl)phenyl]-2,3,8,8a-tetrahydro-1H-indolizin-5-one] | – | 5.7 nM | 0.4 nM
O=C1C=C(c2c(-n3cnnn3)ccc(Cl)c2F)C[C@H]2CC[C@@H](c3ncc(-c4ccnc(C5(O)CC5)c4Cl)[nH]3)N12 (relative stereo) [Example 155, (3*S,8aR)-3-(5-(3-chloro-2-(1-hydroxycyclopropyl)pyridin-4-yl)-1H-imidazol-2-yl)-7-(3-chloro-2-fluoro-6-(1H-tetrazol-1-yl)phenyl)-2,3,8,8a-tetrahydroindolizin-5(1H)-one] | – | 52.4 nM | 4.9 nM
CC(O)COc1nccc(-c2cnc([C@@H]3CC[C@H]4CC(c5c(-n6cnnn6)ccc(Cl)c5F)=CC(=O)N43)[nH]2)c1F (single isomer, unassigned) [Example 29] | 57.9 nM | 307 nM | –
CCN(CCO)c1nccc(-c2cnc([C@@H]3CC[C@@H]4CC(c5c(-n6cnnn6)ccc(Cl)c5F)=CC(=O)N43)[nH]2)c1F (single isomer, unassigned) [Example 136, (3S,8a*R)-7-(3-chloro-2-fluoro-6-(1H-tetrazol-1-yl)phenyl)-3-(5-(2-(ethyl(2-hydroxyethyl)amino)-3-fluoropyridin-4-yl)-1H-imidazol-2-yl)-2,3,8,8a-tetrahydroindolizin-5(1H)-one] | 4.8 nM | 6.3 nM | –

From patent US20230295157A1, “3-(1H-IMIDAZOL-2-YL)-2,3,8,8A-TETRAHYDROINDOLIZIN-5(1H)-ONE DERIVATIVES USEFUL AS FACTOR XIA INHIBITORS” (JANSSEN PHARMACEUTICA NV, priority 2020, published 2023)
